In ChEMBL document CHEMBL5376002, “A Hybrid Antimicrobial Peptide Targeting Staphylococcus aureus with a Dual Function of Inhibiting Quorum Sensing Signaling and an Antibacterial Effect” (J Med Chem, 2023):
pKd: −log10 of the molar value. Values after ≈ are worked out from the molar mass of the structure shown. Active and inactive are the calls of the source. The rule behind the calls is not given here. Bridge positions count the residues as written; N and C are the ends. Square brackets hold non-standard residues; d marks the D form. Peptide text beside a SMILES is read from it. Dab = NCC[C@H](N)C(=O)O

Tests used:
Streptococcus mutans [1] = assay: Antibacterial activity against Streptococcus mutans UA159 assessed as inhibition of bacterial growth incubated for 18 to 24 hrs; type: functional; details: time 18-24 hrs
[2] = Binding affinity to AgrC-I extra-loop-I (unknown origin) assessed as dissociation constant incubated for 10 mins by isothermal titration calorimetry analysis
Cell membrane [3] = assay: Induction of cell membrane damage in Staphylococcus aureus ATCC 6538p assessed as increase in fluorescent intensity incubated for 30 mins by PI staining based flow cytometry assay
Staphylococcus aureus [4] = assay: Antivirulence activity against Staphylococcus aureus assessed as downregulation of hla expression level at 1 to 100 uM incubated for 24 hrs by qRT-PCR analysis; type: functional, organism-based; details: dose 1-100 µM
Streptococcus mutans [5] = assay: Antibacterial activity against Streptococcus mutans ATCC 25175 assessed as inhibition of bacterial growth incubated for 18 to 24 hrs; type: functional; details: time 18-24 hrs
Staphylococcus aureus [6] = assay: Bactericidal activity against Staphylococcus aureus ATCC 12600 assessed as inhibition of bacterial growth incubated for 18 to 24 hrs; type: functional; details: time 18-24 hrs
Homo sapiens [7] = species on record: Homo sapiens; assay: Binding affinity to AgrC-I extra-loop-II (unknown origin) assessed as change in entropy incubated for 10 mins by isothermal titration calorimetry analysis
[8] = tested on: Staphylococcus saprophyticus; assay: Bactericidal activity against Staphylococcus saprophyticus ATCC BAA-750 assessed as inhibition of bacterial growth incubated for 18 to 24 hrs; type: functional; details: time 18-24 hrs
[9] = tested on: Staphylococcus epidermidis; assay: Bactericidal activity against Staphylococcus epidermidis ATCC 12228 assessed as inhibition of bacterial growth incubated for 18 to 24 hrs; type: functional; details: time 18-24 hrs
[10] = Binding affinity to AgrC-I extra-loop-III (unknown origin) assessed as change in enthalpy incubated for 10 mins by isothermal titration calorimetry analysis
Erythrocyte = assay: Hemolytic activity in rat RBC assessed as hemolysis measured after 20 hrs; type: toxicity, cell-based
Streptococcus mutans [11] = assay: Bactericidal activity against Streptococcus mutans ATCC 25175 assessed as inhibition of bacterial growth incubated for 18 to 24 hrs; type: functional; details: time 18-24 hrs
RAW264.7 [12] = assay: Cytotoxicity against mouse RAW264.7 cells assessed as cell viability incubated for 48 hrs by MTT assay; type: functional
Staphylococcus aureus [13] = assay: Antibacterial activity against Staphylococcus aureus ATCC 6538p assessed as inhibition of bacterial growth incubated for 18 to 24 hrs; type: functional; details: time 18-24 hrs
Homo sapiens [14] = species on record: Homo sapiens; assay: Binding affinity to AgrC-I extra-loop-I (unknown origin) assessed as change in entropy incubated for 10 mins by isothermal titration calorimetry analysis
[15] = tested on: Staphylococcus epidermidis; assay: Antibacterial activity against Staphylococcus epidermidis ATCC 12228 assessed as inhibition of bacterial growth incubated for 18 to 24 hrs; type: functional; details: time 18-24 hrs
Staphylococcus aureus [16] = assay: Antibacterial activity against Staphylococcus aureus ATCC 43300 assessed as inhibition of bacterial growth incubated for 18 to 24 hrs; type: functional; details: time 18-24 hrs
Streptococcus pneumoniae [17] = assay: Antibacterial activity against Streptococcus pneumoniae ATCC 49619 assessed as inhibition of bacterial growth incubated for 18 to 24 hrs; type: functional; details: time 18-24 hrs
Homo sapiens [18] = species on record: Homo sapiens; assay: Binding affinity to AgrC-I extra-loop-III (unknown origin) assessed as change in entropy incubated for 10 mins by isothermal titration calorimetry analysis
Escherichia coli [19] = assay: Antibacterial activity against Escherichia coli ATCC 25922 assessed as inhibition of bacterial growth incubated for 18 to 24 hrs; type: functional; details: time 18-24 hrs
[20] = Binding affinity to AgrC-I extra-loop-II (unknown origin) assessed as change in enthalpy incubated for 10 mins by isothermal titration calorimetry analysis
Staphylococcus aureus [21] = assay: Antivirulence activity against Staphylococcus aureus assessed as downregulation of psm-alpha expression level at 1 to 100 uM incubated for 24 hrs by qRT-PCR analysis; type: functional, organism-based; details: dose 1-100 µM
Staphylococcus aureus [22] = assay: Inhibition of biofilm formation in Staphylococcus aureus incubated for 24 hrs by crystal violet staining based microscopic analysis; type: functional, organism-based
Homo sapiens [23] = species on record: Homo sapiens; assay: Binding affinity to AgrC-I extra-loop-I (unknown origin) assessed as gibbs free energy change incubated for 10 mins by isothermal titration calorimetry analysis
[24] = Binding affinity to AgrC-I extra-loop-I (unknown origin) assessed as change in enthalpy incubated for 10 mins by isothermal titration calorimetry analysis
Cell membrane [25] = assay: Induction of cell membrane damage in Staphylococcus aureus ATCC 6538p assessed as increase in nucleic acid leakage measured up to 30 mins by UV-spectrophotometer analysis; type: subcellular
[26] = Binding affinity to AgrC-I extra-loop-II (unknown origin) assessed as dissociation constant incubated for 10 mins by isothermal titration calorimetry analysis
[27] = tested on: Staphylococcus saprophyticus; assay: Antibacterial activity against Staphylococcus saprophyticus ATCC BAA-750 assessed as inhibition of bacterial growth incubated for 18 to 24 hrs; type: functional; details: time 18-24 hrs
Staphylococcus aureus [28] = assay: Bactericidal activity against Staphylococcus aureus ATCC 6538p assessed as inhibition of bacterial growth incubated for 18 to 24 hrs; type: functional; details: time 18-24 hrs
Homo sapiens [29] = species on record: Homo sapiens; assay: Binding affinity to AgrC-I extra-loop-III (unknown origin) assessed as gibbs free energy change incubated for 10 mins by isothermal titration calorimetry analysis
Staphylococcus aureus [30] = assay: Bactericidal activity against Staphylococcus aureus ATCC 43300 assessed as inhibition of bacterial growth incubated for 18 to 24 hrs; type: functional; details: time 18-24 hrs
Staphylococcus aureus [31] = assay: Antivirulence activity against Staphylococcus aureus assessed as downregulation of RNAIII expression level at 1 to 100 uM incubated for 24 hrs by qRT-PCR analysis; type: functional, organism-based; details: dose 1-100 µM
RAW264.7 [32] = assay: Cytotoxicity against mouse RAW264.7 cells assessed as cell viability upto 125 uM incubated for 48 hrs by MTT assay; type: functional, cell-based
[33] = Binding affinity to AgrC-I extra-loop-III (unknown origin) assessed as dissociation constant incubated for 10 mins by isothermal titration calorimetry analysis
Escherichia coli [34] = assay: Bactericidal activity against Escherichia coli ATCC 25922 assessed as inhibition of bacterial growth incubated for 18 to 24 hrs; type: functional; details: time 18-24 hrs
Staphylococcus aureus [35] = assay: Antibacterial activity against Staphylococcus aureus ATCC 12600 assessed as inhibition of bacterial growth incubated for 18 to 24 hrs; type: functional; details: time 18-24 hrs
Streptococcus pneumoniae [36] = assay: Bactericidal activity against Streptococcus pneumoniae ATCC 49619 assessed as inhibition of bacterial growth incubated for 18 to 24 hrs; type: functional; details: time 18-24 hrs
Streptococcus mutans [37] = assay: Bactericidal activity against Streptococcus mutans UA159 assessed as inhibition of bacterial growth incubated for 18 to 24 hrs; type: functional; details: time 18-24 hrs
Homo sapiens [38] = species on record: Homo sapiens; assay: Binding affinity to AgrC-I extra-loop-II (unknown origin) assessed as gibbs free energy change incubated for 10 mins by isothermal titration calorimetry analysis
[39] = Inhibition of quorum sensing system in Staphylococcus epidermidis ATCC 12228 assessed as downregulation of RNAIII expression level at 1 to 100 uM incubated for 24 hrs by qRT-PCR analysis; details: dose 1-100 µM
Staphylococcus aureus [40] = assay: Antivirulence activity against Staphylococcus aureus ATCC 6538p assessed as downregulation of RNAIII expression level at 2.5 uM measured for 28 passages by qRT-PCR analysis; type: functional, organism-based
Staphylococcus aureus [41] = assay: Bactericidal activity against Staphylococcus aureus assessed as inhibition of bacterial growth at 31.25 uM incubated for 120 mins; type: functional, organism-based
[42] = Inhibition of quorum sensing system in Staphylococcus saprophyticus ATCC BAA-750 assessed as downregulation of RNAIII expression level at 1 to 100 uM incubated for 24 hrs by qRT-PCR analysis; details: dose 1-100 µM
Staphylococcus aureus [43] = assay: Inhibition of biofilm formation in Staphylococcus aureus at 0.78 to 1.56 uM incubated for 24 hrs by crystal violet staining based analysis; type: functional, organism-based; details: dose 0.78-1.56 µM
[44] = Inhibition of quorum sensing system in Staphylococcus aureus ATCC 6538p assessed as downregulation of RNAIII expression level incubated for 24 hrs by qRT-PCR analysis; details: dose 1-100 µM
Staphylococcus aureus [45] = assay: Inhibition of biofilm formation in Staphylococcus aureus at 0.39 uM incubated for 24 hrs by crystal violet staining based analysis; type: functional, organism-based
[46] = Toxicity in Kunming mouse infected with Staphylococcus aureus ATCC 6538p assessed as animal survival rate 5 mg/kg, ip pre-infected with bacteria for 1 hr followed by compound administration and measured after 7 days; type: organism-based; details: in vivo, 168 h, time 7 day

| Compound | MIC (Streptococcus mutans [1]) [µM] | pKd [2] | Activity (Staphylococcus aureus [4]) | MIC (Streptococcus mutans [5]) [µM] | MBC (Staphylococcus aureus [6]) [µM] | MBC [8] [µM] | MBC [9] [µM] | deltaH [10] [kcal/mol] | Activity (Erythrocyte) | CC50 (RAW264.7 [12]) [µM] | MIC (Staphylococcus aureus [13]) [µM] | MIC [15] [µM] | MIC (Staphylococcus aureus [16]) [µM] | MIC (Streptococcus pneumoniae [17]) [µM] | MIC (Escherichia coli [19]) [µM] | deltaH [20] [kcal/mol] | Activity (Staphylococcus aureus [21]) | inhibition (Staphylococcus aureus [22]) | MIC [27] [µM] | MIC (Staphylococcus aureus [35]) [µM] | further results |
| --- | --- | --- | --- | --- | --- | --- | --- | --- | --- | --- | --- | --- | --- | --- | --- | --- | --- | --- | --- | --- | --- |
| H-IKNLWKKMIKLWY-OH | 6.25 | 12.00 | inactive | 3.13 | 6.25 | 6.25 | 3.13 | -0.775 | Non-Toxic | > 125 | 3.13 | 1.56 | 6.25 | 6.25 | 3.13 | -44.2 | inactive | Active | 3.13 | 3.13 | Activity (Cell membrane [3]): Active; -TdeltaS (Homo sapiens [7]): 27.9 kcal/mol; MBC (Streptococcus mutans [11]): 12.5 µM; -TdeltaS (Homo sapiens [14]): -16.3 kcal/mol; -TdeltaS (Homo sapiens [18]): -15.6 kcal/mol; deltaG (Homo sapiens [23]): -16.4 kcal/mol; deltaH [24]: inactive; Activity (Cell membrane [25]): Active; pKd [26]: 12.00; MBC (Staphylococcus aureus [28]): 3.13 µM; deltaG (Homo sapiens [29]): -16.4 kcal/mol; MBC (Staphylococcus aureus [30]): 6.25 µM; Activity (Staphylococcus aureus [31]): inactive; Activity (RAW264.7 [32]): inactive; pKd [33]: 12.00; MBC (Escherichia coli [34]): 3.13 µM; MBC (Streptococcus pneumoniae [36]): 12.5 µM; MBC (Streptococcus mutans [37]): 12.5 µM; deltaG (Homo sapiens [38]): -16.4 kcal/mol |
| CC[C@H](C)[C@H](NC(C)=O)C(=O)N[C@@H](CC(N)=O)C(=O)N[C@H]1CCNC(=O)[C@H](CC(C)C)NC(=O)[C@H](CC(C)C)NC(=O)[C@H](Cc2ccccc2)NC(=O)[C@H](C)NC1=O (Ac-IN[Dab]AFLL; lactam 3-C) | > 100 | 12.00 | Active | > 100 | – | – | – | 0.085 | Toxic | > 125 | > 100 | > 100 | > 100 | > 100 | > 100 | -52.4 | Active | Active | > 100 | > 100 | inhibition [39]: inactive; Activity (Staphylococcus aureus [40]): Active; Activity (Staphylococcus aureus [41]): inactive; inhibition [42]: inactive; inhibition (Staphylococcus aureus [43]): Active; inhibition [44]: Dose-Dependent Effect; deltaG (Homo sapiens [23]): -16.4 kcal/mol; deltaH [24]: -1.43 kcal/mol; pKd [26]: 2.63; deltaG (Homo sapiens [29]): -9.36 kcal/mol; Activity (Staphylococcus aureus [31]): Active; Activity (RAW264.7 [32]): inactive; pKd [33]: 6.86; inhibition (Staphylococcus aureus [45]): Active; deltaG (Homo sapiens [38]): -3.6 kcal/mol |
| CN[C@H](CC(C)C)C(=O)N[C@H]1C(=O)N[C@@H](CC(N)=O)C(=O)N[C@H]2C(=O)N[C@H]3C(=O)N[C@H](C(=O)N[C@H](C(=O)O)c4cc(O)cc(O)c4-c4cc3ccc4O)[C@H](O)c3ccc(c(Cl)c3)Oc3cc2cc(c3O[C@@H]2O[C@H](CO)[C@@H](O)[C@H](O)[C@H]2O[C@H]2C[C@](C)(N)[C@H](O)[C@H](C)O2)Oc2ccc(cc2Cl)[C@H]1O [VANCOMYCIN] | > 100 | – | – | > 100 | 0.39 (≈ 0.565 µg/mL) | 0.39 (≈ 0.565 µg/mL) | 0.39 (≈ 0.565 µg/mL) | – | – | – | 0.39 (≈ 0.565 µg/mL) | 0.39 (≈ 0.565 µg/mL) | 0.39 (≈ 0.565 µg/mL) | 0.19 (≈ 0.275 µg/mL) | > 100 | – | – | – | 0.39 (≈ 0.565 µg/mL) | 0.39 (≈ 0.565 µg/mL) | Activity [46]: 90%; Activity (Cell membrane [25]): inactive; MBC (Staphylococcus aureus [28]): 0.39 µM (≈ 0.565 µg/mL); MBC (Staphylococcus aureus [30]): 0.39 µM (≈ 0.565 µg/mL); MBC (Streptococcus pneumoniae [36]): 0.19 µM (≈ 0.275 µg/mL) |
